Measurements reported in paper PMC13188182, “Role of DZ2002 in reducing corneal graft rejection in rats by influencing Th17 activation via inhibition of the PI3K/AKT pathway and downregulation of TRAF1” (Open Life Sciences, 2026).
pKd: −log10 of the molar value.

Target: T1, TRAF1
T1 construct: TRAF1 protein amine-coupled to carboxylated SPR chip
Experiment: surface plasmon resonance, TRAF1 immobilized
Type: binding
Details: PBST running buffer; analyte 0-500 μM; Fc2-Fc1 double-referenced

pKd: 3.61
SMILES: N[C@@H](CCS)C(=O)O [L-homocysteine]
